Here are results for 8 compounds from PMC12664080, “Tetrazole-containing naphthalene bis-sulfonamide Keap1-Nrf2 interaction inhibitors with unexpected binding modes” (Redox Biology, 2025).

Usually IC50 stands for the midpoint of a concentration-inhibition curve. The low end stands for greater potency in that assay, the high end for weaker potency in that assay. For orientation: Kd means the equilibrium constant for the complex coming apart.

For data set [1], the system named is NQO1. Description: NQO1 induction assay in Hepa1c1c7 cells. Format: cell-based, mouse. Particulars: Mus musculus, Hepa-1c1c7, 10 μM. As for the experimental part:
The method using Hepa1c1c7 cells has been described previously. Briefly, cells were seeded into 96-well plates (2 × 10^4 cells/200 μL per well) then incubated overnight at 37 °C. The cells were treated with compound (10 μM final concentration) or vehicle (final DMSO concentration 0.1 % DMSO) and incubated for a further 24 h or 48 h. The culture medium was aspirated and the cells treated with lysis buffer (50 μL per well, 0.1 % Tween 20 in 2 mM EDTA (pH 7.5)) then agitated for 15 min. Enzyme reaction mixture was added to each well (200 μL of 25 mM Tris buffer (pH 7.5) containing BSA (0.067 %), Tween20 (0.01 %), FAD (5 μM), G6P (1 mM), NADP (30 μM), G6P dehydrogenase (40 units), MTT (0.03 %), menadione (50 μM)) for 5 min then stop solution was applied (40 μL of 10 % SDS, final concentration 1.5 % SDS). Following brief agitation of the plate, the absorbance at 595 nm was measured. The background optical density was measured from wells containing tissue culture medium, lysis buffer, enzyme and stop solutions in the absence of Hepa1c1c7 cells. The change in background-corrected NQO1 activity (change in optical density) relative to the control was determined for each compound.

Data set [2] has as its system Nrf2. In words: Nrf2 luciferase reporter assay (MCF7 ARE-luciferase reporter cell line). Conditions: Homo sapiens; 100 μM (highest test concentration), MCF7 cells; read-out: peak fold induction of luciferase activity. Format: cell-based. The procedure: The induction of luciferase activity in the stably transfected MCF7 ARE-luciferase reporter cell line was measured using an adaptation of a published procedure. […] The cells were treated with compound or vehicle control (1 % final DMSO concentration) and incubated for a further 24 h. The culture medium was aspirated and the cells were washed with 100 μL per well PBS. The cells were lysed using 75 μL per well lysis buffer (0.2 % Triton X-100 in 25 mM Tris pH 7.5) under gentle agitation at rt for 30 min. The samples were transferred to 500 μL Eppendorf tubes and centrifuged at 10000 g for 5 min at 4 °C. 50 μL of supernatant from each sample were transferred to a new 96 well plate. 50 uL of working reagent (100 mM Tris pH 8.0, 5 mM MgCl2, 100 μM coenzyme A, 80 μM luciferin, and 5 mM ATP) were added to each well and the luciferase activity was measured.
(A reporter such as luciferase makes a cellular process visible.)

Data set [3] can be described thus: 1D 1H NMR lineshape analysis of cis/trans rotamer exchange. Particulars: DMSO; for kA→B / ΔH^‡AB / ΔHAB: lineshape; for ΔH^‡AB: Eyring; for ΔHAB: van't Hoff.
Procedure: Exchange was quantified using a two-site exchange model [40] implemented in Julia, where resonances were fitted to calculate chemical shifts of the two states and the exchange rates kAB and kBA between them. […] Reported uncertainties were determined from the standard errors of the fits.
Exchange rates kAB and kBA were used to determine the relative populations pA=kBA/kAB+kBA and pB=kAB/kAB+kBA and were fitted to van't Hoff and Eyring equations (with unit transmission coefficient) to estimate the enthalpy and entropy changes and enthalpy and entropy of activation.
The target of data set [4] is T1, Keap1 Kelch domain (Homo sapiens, UniProt Q14145).
T1 construct: made in house
T1 sequence (Q14145 322-609): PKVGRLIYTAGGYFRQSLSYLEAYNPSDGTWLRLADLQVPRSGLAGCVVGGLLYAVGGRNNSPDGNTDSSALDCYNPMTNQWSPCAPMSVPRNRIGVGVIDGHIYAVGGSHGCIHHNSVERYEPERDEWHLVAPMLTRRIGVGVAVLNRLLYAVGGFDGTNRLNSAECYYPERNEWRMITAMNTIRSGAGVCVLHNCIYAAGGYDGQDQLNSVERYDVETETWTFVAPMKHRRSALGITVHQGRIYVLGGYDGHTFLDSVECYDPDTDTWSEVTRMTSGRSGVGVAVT
In words: Differential scanning fluorimetry (DSF) thermal shift assay. Conditions: 10 μM compound; Keap1 vehicle control Ti = 61.3 ± 0.3 °C. Format: binding. The procedure:
The DSF assays were carried out according to the previously described method. Solutions of the Keap1 Kelch domain protein (5 μM final concentration) and the small molecule inhibitor (10 μM final concentration) were prepared in DPBS at pH 7.4 (10 % final DMSO concentration, 20 μL final volume) in an Eppendorf tube. The solution was centrifuged briefly (1500 rpm, 60 s) to remove any particulates and mix the samples, followed by a 30 min incubation at RT. The samples were loaded into Tycho NT.6 capillaries (Nanotemper) in triplicate and positioned in the […] instrument. […] The fluorescence ratio vs temperature was plotted and the inflection temperature (Ti) of the profile was recorded. Changes in inflection (ΔTi) for the inhibitors were calculated by subtracting the mean Ti of the Keap1 sample plus vehicle from the mean Keap1 plus binder value (n = 3).
On the technique in general: Differential scanning fluorimetry follows unfolding on heating by fluorescence.

Data set [5] addresses T1, Keap1 Kelch domain. Description: Fluorescence polarisation (FP) competition assay. Conditions: for inhibition at 10 µM: read-out: FP percentage inhibition at 10 μM concentration of inhibitor; for IC50: 200 nM Keap1 Kelch domain, 1 nM FITC-β-DEETGEF-OH. The class given is binding. The procedure:
The FP assays were carried out according to previously described methods [[23],[31], [32], [33], [34]]. […] Following incubation under slow agitation (30 min at rt in the absence of light), the plates were transferred to a PHERAstar microplate reader and the FP was recorded. All measurements were recorded in triplicate. The data were normalised to the control and then fitted to a standard four-parameter logistic function using the Origin Pro software.
In general terms: Fluorescence polarisation rises when a labelled molecule tumbles more slowly, as on binding a larger partner.

The target of data set [6] is Keap1 (Homo sapiens, UniProt Q14145). In words: Microscale thermophoresis (MST). Conditions: 10 nM Keap1.
Sequence of Keap1 (Q14145 322-609): as above
Procedure: Keap1 was labelled using the Protein Labelling Kit RED-NHS 2nd Generation (NanoTemper, München, Germany). Keap1 was diluted to 2 μM in RED-NHS Labelling Buffer. 10 μg of RED-NHS 2nd Generation labelling dye was freshly dissolved in 25 μL of DMSO to yield a concentration of 600 μM, then further diluted in RED-NHS Labelling Buffer to 300 μM. A volume of 20 μL of the 300 μM labelling dye was thoroughly mixed with 180 μL of 2 μM Keap1 and incubated at rt in a dark environment for 3 h. […] The sample was transferred to the centre of the resin bed in the B-column. 550 μL of Keap1 MST buffer was pipetted into the B-column and allowed to enter completely, followed by elution of the sample with 450 μL of Keap1 MST buffer and the flow-through was collected into a 1.5 mL Eppendorf tube. The collected sample was centrifuged at 15,000×g for 10 min at 4 °C to remove aggregates. Protein concentration in the collected sample was determined using the NanoDrop spectrophotometer. The sample was then tested in MST pre-test to evaluate the labelling quality.
Labelled Keap1 was diluted to 20 nM in Keap1 MST buffer prior to the reaction setup. […] An equal volume of 20 nM Keap1 was thoroughly mixed with each diluted sample and incubated for 30 min at rt. […] An equal volume of 2 nM Keap1 was mixed with each diluted sample and incubated at rt for 30 min. Incubated samples were loaded into Monolith NT.115 standard capillaries and measured using the Monolith NT.115^Pico instrument in triplicate. Parameters and measurements were set and controlled by the MO.Control software and collected datasets were analysed using the MO.Affinity Analysis software.
For data set [7], the target named is T1, Keap1 Kelch domain. Description: Isothermal titration calorimetry (ITC). The class given is binding. Particulars: 25 °C; read-out: ITC Kd. As for the experimental part:
The measurements were performed as described previously. The small molecule inhibitor at 500 μM was titrated over 30 injections against 50 μM protein in buffer containing 25 mM HEPES (pH 7.4), 200 mM NaCl and 5 % DMSO. ITC experiments were performed using a MicroCal PEAQ-ITC instrument (Malvern Instruments, UK) at 25 °C with a stirring speed of 750 rpm. The first injection volume was of 0.3 μL followed by 29 injections of 1.3 μL and a gap of 120 s between each injection. Data analyses were performed as previously described. Each small molecule ITC measurement was performed in duplicate and resultant values obtained were averaged after independent analysis.

In the case of `COc1ccc(S(=O)(=O)N(CC(=O)O)c2ccc(N(CC(=O)O)S(=O)(=O)c3ccc(OC)cc3)c3ccccc23)cc1` [Compound 2, 2,2'-(Naphthalene-1,4-diylbis(((4-methoxyphenyl)sulfonyl)azanediyl))diacetic acid, reference compound], in data set [1], the fold induction at 10 µM came out at 2.34 ± 0.35. The fold induction at 100 µM in data set [2] stood at 10.9. In data set [3] (300 K), the “Occupancy of the more shielded state (A)” value amounted to 0.426 ±0.001 and the kA→B was found to be 3.175 ± 0.005 s⁻¹. In addition, in data set [3] (310 K), the “Occupancy of the more shielded state (A)” value amounted to 0.436 ±0.001 and the kA→B came out at 8.456 ± 0.024 s⁻¹. Besides, in data set [3] (320 K), the “Occupancy of the more shielded state (A)” value was 0.443 ±0.001 and the kA→B stood at 18.949 ± 0.04 s⁻¹. In data set [3], the “ΔH^‡AB” value amounted to 15.8 ± 0.598 kcal/mol and the ΔHAB was -0.636 ± 0.0598 kcal/mol.
Turning to `COc1ccc(S(=O)(=O)N(CC(N)=O)c2ccc(N(CC(N)=O)S(=O)(=O)c3ccc(OC)cc3)c3ccccc23)cc1` [Compound 4, 2,2'-(Naphthalene-1,4-diylbis(((4-methoxyphenyl)sulfonyl)azanediyl))diacetamide], the “DSF ΔTi” value in data set [4] was 7.6 ± 0.1 °C.
Take `CCOC(=O)CN(c1ccc(N(CC(=O)OCC)S(=O)(=O)c2ccc(OC)cc2)c2ccccc12)S(=O)(=O)c1ccc(OC)cc1` [Compound 11, Diethyl 2,2'-(naphthalene-1,4-diylbis(((4-methoxyphenyl)sulfonyl)azanediyl))diacetate]: in data set [5], the inhibition at 10 µM came to 0%.
As to `COc1ccc(S(=O)(=O)N(CC#N)c2ccc(N(CC#N)S(=O)(=O)c3ccc(OC)cc3)c3ccccc23)cc1` [Compound 12, N,N'-(Naphthalene-1,4-diyl)bis(N-(cyanomethyl)-4-methoxybenzenesulfonamide)], the fold induction at 10 µM in data set [1] was found to be 0.89 ± 0.24. Further, the inhibition at 10 µM in data set [5] was determined as 0%.
For `COc1ccc(S(=O)(=O)N(Cc2nnn[nH]2)c2ccc(N(Cc3nnn[nH]3)S(=O)(=O)c3ccc(OC)cc3)c3ccccc23)cc1` [Compound 13, N,N'-(Naphthalene-1,4-diyl)bis(N-((1H-tetrazol-5-yl)methyl)-4-methoxybenzenesulfonamide)], the fold induction at 10 µM in data set [1] stood at 1.94 ± 0.22. The compound also had a concentration for half-maximal inhibition (IC50) in data set [5] of 76 ± 3 nM. The entries for the “Occupancy of the more shielded state (A)” value in data set [3] (300 K), in data set [3] (310 K) and in data set [3] (320 K) were 0.542 ±0.003, 0.548 ±0.001 and 0.552 ±0.001, respectively. Moreover, the kA→B in data set [3] (300 K) was 1.063 ± 0.008 s⁻¹; in data set [3] (310 K), 1.459 ± 0.006 s⁻¹; in data set [3] (320 K), 2.927 ± 0.010 s⁻¹. Also, the “ΔH^‡AB” value in data set [3] worked out at 10.4 ± 2.29 kcal/mol. For the same compound, in data set [3], the ΔHAB was -0.394 ± 0.0406 kcal/mol. Further, the Kd in data set [6] was determined as 17.1 ± 2.6 nM; in data set [7] it was 75.6 ± 33.9 nM. Moreover, the “DSF ΔTi” value in data set [4] came to 20.4 ± 0.1 °C.
Regarding `COc1ccc(S(=O)(=O)N(Cc2nnc(C)o2)c2ccc(N(Cc3nnc(C)o3)S(=O)(=O)c3ccc(OC)cc3)c3ccccc23)cc1` [Compound 17, N,N'-(Naphthalene-1,4-diyl)bis(4-methoxy-N-((5-methyl-1,3,4-oxadiazol-2-yl)methyl)benzenesulfonamide)], the fold induction at 10 µM in data set [1] is 1.25 ± 0.18. In data set [5], the “binding activity in FP assay” value is recorded as “not tolerated” and the inhibition at 10 µM worked out at 0%. The “DSF ΔTi” value in data set [4] worked out at 0.6 ± 0.1 °C.
As for `CCOC(=O)CN(c1ccc(N(CC(=O)O)S(=O)(=O)c2ccc(OC)cc2)c2ccccc12)S(=O)(=O)c1ccc(OC)cc1` [Compound 22, 2-(N-(4-(N-(2-Ethoxy-2-oxoethyl)-4-methoxyphenylsulfonamido)naphthalen-1-yl)-4-methoxyphenylsulfonamido)acetic acid], the fold induction at 10 µM in data set [1] was 0.77 ± 0.18. In data set [5], the “binding activity in FP assay” value was “inactive” and the inhibition at 10 µM is 0%.
`COc1ccc(S(=O)(=O)N(CC(N)=O)c2ccc(N(CC(=O)O)S(=O)(=O)c3ccc(OC)cc3)c3ccccc23)cc1` [Compound 23, 2-(N-(4-(N-(2-Amino-2-oxoethyl)-4-methoxyphenylsulfonamido)naphthalen-1-yl)-4-methoxyphenylsulfonamido)acetic acid]: the fold induction at 10 µM in data set [1] stood at 1.9 ± 0.05. In data set [5], this compound returned a 50% inhibitory concentration (IC50) of 143 ± 18 nM. The “DSF ΔTi” value in data set [4] came out at 10.0 ± 0.2 °C.
